This note sets out measurements from patent publication US20130079345A1, “[…] ACTIVE DISUBSTITUTED TRIAZINE DERIVATIVES” (BAYER INTELLECTUAL PROPERTY GMBH, priority 2010, published 2013).

The target in one experiment is T1, CDK9/Cyclin T1 (Homo sapiens, UniProt P50750).
T1 construct: purchased Invitrogen
Put plainly: LanthaScreen Eu Kinase Binding Assay, CDK9/Cyclin T1. Conditions: tracer 236, read-out: Affinity (Kd) CDK9/Cyclin T1. As for the experimental part:
(§1) This protocol describes how the LanthaScreen Eu Kinase Binding Assay was performed to determine dissociation constants (Kd) of compounds of general formula (I) and CDK/Cyclin complexes. The principle behind this assay is based upon the binding and displacement of an Alexa Fluor 647-labeled tracer, which binds to the active site of kinases. Binding of the tracer to the kinase is detected using a Eu-labeled antibody. Simultaneous binding of both the tracer and antibody to the kinase gives rise to a FRET-signal. Binding of an inhibitor to the kinase competes for binding with the tracer, resulting in a loss of FRET.
(§2) The compounds of general formula (I) summarized in Table 1 were diluted from a 10 mM DMSO stock solution 1:10 in a total volume of 15 μL DMSO. This compound predilution was then serial diluted 1:3 over 8 steps in DMSO and briefly spun down. Each compound solution was now diluted 1:33.33 in kinase buffer (HEPES: 20 mM, pH: 8.0; MgCl2: 10 mM; DTT: 1 mM; Brij-35: 0.01%), mixed thoroughly and spun down. For every sample, 5 μL of the diluted compound were mixed with 5 μL tracer working solution (e.g. 60 nM tracer 236 in kinase buffer for CDK2/Cyclin A) and 5 μL CDK/Cyclin/Anti-GST-AB-working solution (e.g. 15 nM CDK2/Cyclin A, 1:250 dilution of Anti-GST-AB in kinase buffer) in a well of a small volume 384 well plate (Corning Incorporated, Corning, N.Y., USA; order no. 3673). […] For positive controls, in each well 5 μL of DMSO working solution (3% DMSO diluted in kinase buffer) was mixed with 5 μL CDK/Cyclin/Anti-GST-AB-working solution: (e.g. 15 nM CDK2/Cyclin A, 1:250 dilution of Anti-GST-AB in kinase buffer) and 5 μL Tracer working solution (e.g. 60 nM Tracer 236 in kinase buffer for CDK2/Cyclin A). Positive and negative controls were calculated from at least 8 different sample wells. The 384 well plates were mixed in a Teleshaker plate mixer (Beckman Coulter, Brea, Calif., USA) at 2000 rpm for 40 sec, and incubated for 1 h at room temperature before reading. The FRET signal was measured at 340 nm excitation, 665 nm and 615 nm emission (for the kinase tracer and LanthaScreen Eu-AB, respectively) with an Envision spectrophotometer (Perkin Elmer, Waltham, Mass., USA) with 50 μs delay and 300 μs integration time. Kd values were determined from the sigmoidal dose response curves with the software Quattro Workflow (Quattro GmbH, Munich, Germany).
For orientation: In TR-FRET formats the signal depends on donor and acceptor labels being close together.

Another experiment has as its target T2, CDK9/Cyclin K (Homo sapiens, UniProt P50750).
T2 construct: purchased Invitrogen
Put plainly: LanthaScreen Eu Kinase Binding Assay, CDK9/Cyclin K. Particulars: tracer 236, read-out: Affinity (Kd) CDK9/Cyclin K. On the procedure: as §1, §2

In another experiment the target is T3, CDK8/Cyclin C (Homo sapiens, UniProt P49336).
T3 construct: purchased Invitrogen
T3 sequence (P49336 whole entry): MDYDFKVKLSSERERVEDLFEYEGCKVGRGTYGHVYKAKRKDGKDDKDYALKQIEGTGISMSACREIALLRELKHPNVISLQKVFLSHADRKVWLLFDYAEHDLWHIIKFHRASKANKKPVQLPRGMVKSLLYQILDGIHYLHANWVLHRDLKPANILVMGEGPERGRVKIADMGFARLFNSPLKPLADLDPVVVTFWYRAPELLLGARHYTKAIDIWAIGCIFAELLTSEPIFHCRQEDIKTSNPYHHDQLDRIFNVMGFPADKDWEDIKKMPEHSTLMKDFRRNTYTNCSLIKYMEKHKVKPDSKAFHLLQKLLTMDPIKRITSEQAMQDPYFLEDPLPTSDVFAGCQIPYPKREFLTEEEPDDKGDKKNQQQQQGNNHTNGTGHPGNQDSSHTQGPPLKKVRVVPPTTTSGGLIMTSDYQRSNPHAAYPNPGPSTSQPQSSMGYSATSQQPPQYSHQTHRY
T3 sequence (P24863 whole entry partner): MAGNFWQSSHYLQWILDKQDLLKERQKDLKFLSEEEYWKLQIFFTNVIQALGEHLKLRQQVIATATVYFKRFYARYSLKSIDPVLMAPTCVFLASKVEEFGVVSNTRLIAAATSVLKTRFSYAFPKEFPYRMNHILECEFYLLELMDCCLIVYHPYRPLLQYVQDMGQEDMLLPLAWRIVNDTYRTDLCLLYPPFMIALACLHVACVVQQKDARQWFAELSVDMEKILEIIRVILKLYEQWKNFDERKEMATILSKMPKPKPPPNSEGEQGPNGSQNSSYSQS
Put plainly: LanthaScreen Eu Kinase Binding Assay, CDK8. Particulars: tracer 236, read-out: Affinity (Kd) CDK8. As for the experimental part:
as §1, §2

A further experiment concerns the target T4, CDK7/CyclinH/Mat1 (Homo sapiens, UniProt P50613).
T4 construct: purchased Carna Biosciences
Put plainly: LanthaScreen Eu Kinase Binding Assay, CDK7. Particulars: tracer 236, read-out: Affinity (Kd) CDK7. On the procedure: as §1, §2

For the next experiment, the target named is T5, CDK2/CyclinA (Homo sapiens, UniProt P24941).
T5 construct: purchased Proqinase
Put plainly: LanthaScreen Eu Kinase Binding Assay, CDK2. Particulars: tracer 236, read-out: Affinity (Kd) CDK2. As for the experimental part: as §1, §2

Experiment [1] concerns LPS-induced TNF alpha release in PBMCs. Put plainly: TNF alpha release assay. It counts as cell-based. Particulars: Homo sapiens, PBMC, 6 h, 1 μg/mL LPS. On the procedure: Freshly isolated peripheral blood mononuclear cells (PBMCs) were seeded in 96-well cell culture plates with 200,000 cells in 100 μl cell culture medium (DMEM cell culture medium+glutamine from PAN Biotech GmbH, Aidenbach, Germany) supplemented with 10% fetal calf serum (PAA Laboratories GmbH, Pasching, Austria) per well and incubated overnight at 37° C., 5% CO2. To each well, 100 μL cell culture medium with 2× concentrated test compounds diluted from 10 mM DMSO stocks, or 100 μL DMEM with 0.4% DMSO for control wells, was added. The compounds of general formula (I) summarized in Table 6 were used in this assay. After incubation for 1 h at 37° C., 5% CO2, cells were stimulated with 1 μg/mL LPS (Lipopolysaccharides, Sigma, catalog #L4391-1MG; 1 mg/ml stock solution), or left untreated for negative controls, and plates were incubated for 6 h at 37° C./5% CO2. The cell culture plates were centrifuged at 2000 rpm for 5 minutes, and supernatants were transferred to fresh 96-well polypropylene plates. 25 µL of supernatants were transferred into 96-well-plates of the human TNF alpha-tissue culture kit (Meso Scale Discovery, Gaithersburg, Md., USA), and manufacturer's instructions were followed for analysis of TNF alpha levels. Chemoluminescence was measured in the Mesoscale Sector Imager, and EC50 values were calculated with the software Excel Fit (IDBS, Guildford, UK) from 2-fold dilution series comprising at least 6 concentrations in duplicates.

The subject of experiment [2] is NF-kappaB reporter gene activation in HEK293 cells. In words: NF-kappaB reporter assay. It is filed as cell-based. Particulars: Homo sapiens, 20 ng/ml TNF alpha, 5 h. On the procedure: Cells were maintained in RPMI cell culture medium+glutamine (PAN Biotech GmbH, Aidenbach, Germany) supplemented with 10% fetal calf serum (PAA Laboratories GmbH, Pasching, Austria) and grown at 37° C., 5% CO2. HEK293 cells grown to 50% confluence were transfected with the Amaxa® Cell Line Nucleofector® Kit V (Lonza, Basel, Switzerland, catalog #VCA-1003). Transfections were performed according to manufacturer's optimized protocol for transfection of HEK293 cells. In brief, 2×10^5 cells were transfected with 5 μg highly purified plasmid DNA. Cells were transfected with a NF-kappa B reporter plasmid (pNFkBluc), pTALluc for control, or pMAXGFP for transfection control. After transfection, cells were taken up in 500 μL RPMI1640 cell culture medium, incubated for 1 h at 37° C., and 4.5 ml DMEM without phenol red were added per transfection. Transfected cells were seeded in 96 well plates (Greiner Bio-One, Frickenhausen, Germany, catalog #655098) with 100 μL cell suspension per well and incubated for 48 h. To each well, 100 μL DMEM with 2× concentrated compound diluted from 10 mM DMSO stocks, or 100 μL DMEM with 0.4% DMSO for control wells, was added. The compounds of general formula (I) summarized in Table 6 were used in this assay. Cells were stimulated with 20 ng/ml TNF alpha, and plates were incubated for 5 h at 37° C./5% CO2. Cell culture supernatants were removed to leave 100 μl medium per well, followed by addition of 100 μl Bright Glo luciferase assay reagent (Promega, Madison, Wis., USA, catalog #E2620), and shaking for 5 minutes in the dark. Luminescence was measured with a Victor Photospectrometer (Perkin Elmer, Waltham, Mass., USA). […], values were calculated with the software Excel Fit (IDBS, Guildford, UK) from 2-fold dilution series comprising at least 10 concentrations in duplicates.

Structures are written as SMILES.

T4 sequence (P50613 whole entry): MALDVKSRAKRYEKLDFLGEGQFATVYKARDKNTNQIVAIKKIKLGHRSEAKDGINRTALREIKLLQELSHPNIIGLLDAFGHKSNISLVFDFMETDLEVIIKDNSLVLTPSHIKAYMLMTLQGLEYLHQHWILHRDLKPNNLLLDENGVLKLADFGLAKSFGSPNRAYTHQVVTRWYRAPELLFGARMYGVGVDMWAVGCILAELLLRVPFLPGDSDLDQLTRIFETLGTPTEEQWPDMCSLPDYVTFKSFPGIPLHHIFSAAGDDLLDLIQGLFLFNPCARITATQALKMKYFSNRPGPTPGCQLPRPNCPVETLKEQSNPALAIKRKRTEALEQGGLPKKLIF
T4 sequence (P51946 whole entry partner): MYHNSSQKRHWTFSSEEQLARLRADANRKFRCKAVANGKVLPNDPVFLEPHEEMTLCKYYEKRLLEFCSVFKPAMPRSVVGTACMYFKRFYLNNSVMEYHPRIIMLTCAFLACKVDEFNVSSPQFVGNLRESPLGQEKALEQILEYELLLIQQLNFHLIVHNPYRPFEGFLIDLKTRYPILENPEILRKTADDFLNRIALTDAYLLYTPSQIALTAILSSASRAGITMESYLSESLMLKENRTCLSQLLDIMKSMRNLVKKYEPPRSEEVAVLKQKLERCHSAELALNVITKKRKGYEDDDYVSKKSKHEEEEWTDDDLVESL
T4 sequence (P51948 whole entry partner): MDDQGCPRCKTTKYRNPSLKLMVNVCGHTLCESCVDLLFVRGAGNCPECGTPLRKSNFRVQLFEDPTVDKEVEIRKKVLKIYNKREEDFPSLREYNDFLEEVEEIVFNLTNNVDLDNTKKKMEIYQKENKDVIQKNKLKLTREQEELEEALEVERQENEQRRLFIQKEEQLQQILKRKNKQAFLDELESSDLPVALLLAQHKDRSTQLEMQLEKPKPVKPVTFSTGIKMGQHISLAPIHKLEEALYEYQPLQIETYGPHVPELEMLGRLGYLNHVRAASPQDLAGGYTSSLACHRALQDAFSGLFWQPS
T2 sequence (P50750 whole entry): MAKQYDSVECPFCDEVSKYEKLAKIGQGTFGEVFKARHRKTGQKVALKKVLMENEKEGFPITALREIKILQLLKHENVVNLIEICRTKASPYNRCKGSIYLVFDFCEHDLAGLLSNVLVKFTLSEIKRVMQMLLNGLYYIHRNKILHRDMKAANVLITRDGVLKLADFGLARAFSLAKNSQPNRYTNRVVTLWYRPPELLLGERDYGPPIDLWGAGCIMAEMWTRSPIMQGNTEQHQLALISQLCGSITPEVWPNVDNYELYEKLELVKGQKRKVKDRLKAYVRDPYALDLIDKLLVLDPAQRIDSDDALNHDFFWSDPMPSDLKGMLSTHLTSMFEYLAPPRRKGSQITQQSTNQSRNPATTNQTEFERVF
T2 sequence (O75909 whole entry partner): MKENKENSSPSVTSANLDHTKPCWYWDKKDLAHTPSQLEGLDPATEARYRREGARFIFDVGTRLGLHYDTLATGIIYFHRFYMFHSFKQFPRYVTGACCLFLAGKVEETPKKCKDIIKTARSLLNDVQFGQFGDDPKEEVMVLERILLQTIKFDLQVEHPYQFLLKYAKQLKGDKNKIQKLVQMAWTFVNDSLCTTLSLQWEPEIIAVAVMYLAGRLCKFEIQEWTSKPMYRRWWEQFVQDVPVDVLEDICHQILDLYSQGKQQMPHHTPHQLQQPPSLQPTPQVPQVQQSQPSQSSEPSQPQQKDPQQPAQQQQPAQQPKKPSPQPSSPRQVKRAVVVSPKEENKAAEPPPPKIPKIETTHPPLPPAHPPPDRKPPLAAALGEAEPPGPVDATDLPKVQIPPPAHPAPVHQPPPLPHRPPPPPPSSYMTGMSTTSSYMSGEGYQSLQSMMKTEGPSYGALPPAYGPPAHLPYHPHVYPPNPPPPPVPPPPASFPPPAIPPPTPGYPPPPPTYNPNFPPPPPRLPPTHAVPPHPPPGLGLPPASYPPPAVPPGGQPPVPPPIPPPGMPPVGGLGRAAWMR
T1 sequence (P50750 whole entry): as the sequence (P50750 whole entry) above
T1 sequence (O60563 whole entry partner): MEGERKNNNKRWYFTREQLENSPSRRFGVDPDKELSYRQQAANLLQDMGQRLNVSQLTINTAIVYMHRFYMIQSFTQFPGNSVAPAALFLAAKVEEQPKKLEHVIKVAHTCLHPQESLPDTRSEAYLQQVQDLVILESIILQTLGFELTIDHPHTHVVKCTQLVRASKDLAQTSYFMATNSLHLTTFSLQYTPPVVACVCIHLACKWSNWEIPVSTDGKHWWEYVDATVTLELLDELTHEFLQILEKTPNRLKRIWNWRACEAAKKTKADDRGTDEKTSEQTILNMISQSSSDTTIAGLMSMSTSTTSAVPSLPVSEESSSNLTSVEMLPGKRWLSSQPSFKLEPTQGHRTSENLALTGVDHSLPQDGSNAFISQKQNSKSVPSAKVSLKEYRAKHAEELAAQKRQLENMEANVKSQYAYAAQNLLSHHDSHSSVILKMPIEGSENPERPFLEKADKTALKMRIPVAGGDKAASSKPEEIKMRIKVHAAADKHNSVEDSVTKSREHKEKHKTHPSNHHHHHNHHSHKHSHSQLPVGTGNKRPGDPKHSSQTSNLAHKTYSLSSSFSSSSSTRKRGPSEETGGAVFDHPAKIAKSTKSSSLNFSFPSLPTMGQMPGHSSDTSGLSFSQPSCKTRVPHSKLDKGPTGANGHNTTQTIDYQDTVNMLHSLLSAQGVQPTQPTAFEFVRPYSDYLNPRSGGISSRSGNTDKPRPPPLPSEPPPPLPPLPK

With `NS(=O)(=O)Cc1cccc(Nc2ncnc(-c3cccc4c3OCO4)n2)c1` [Compound B15, 3-[(4-(1,3-Benzodioxol-4-yl)-1,3,5-triazin-2-yl)amino]benzenemethanesulfonamide], the Kd was 0.141 µM at CDK9/Cyclin T1; 2.46 µM at CDK9/Cyclin K; > 10 µM at CDK8/Cyclin C; > 10 µM at CDK7/CyclinH/Mat1; 6.46 µM on CDK2/CyclinA.
For orientation: IC50 means the concentration that inhibits the measured activity by half. With `COc1ccccc1-c1ncnc(Nc2cccc(NC(=O)Nc3ccccc3)c2)n1` [Compound N1, N-[3-((4-(2-Methoxyphenyl)-1,3,5-triazin-2-yl)amino)phenyl]-N′-phenyl-urea], the Kd on CDK9/Cyclin T1 is 0.478 µM; on CDK9/Cyclin K, 0.159 µM; at CDK8/Cyclin C it was > 10 µM; on CDK7/CyclinH/Mat1 it was > 30 µM; at CDK2/CyclinA it was 2.36 µM. For the same compound, the figures for the IC50 in experiment [1] and in experiment [2] were 6.71 µM and 18.4 µM, respectively.
